Ends that are not written are not given here.
What was measured:
[1] = test system: hippocampal CA1 pyramidal neurons; test: Whole-cell patch-clamp recording of spontaneous excitatory postsynaptic current (sEPSC) in hippocampus brain slice; assay type: cell-based, mouse; details: sEPSC at -70 mV, perfusion for 5 min; 5 μM in Embodiment 3
Description: 0.1-0.15 ml of 20% ethyl carbamate was injected into the abdominal cavity of a C57 mouse of 2 to 3 months old for anesthesia; a head was quickly cut, and brain tissues were stripped and put into artificial cerebrospinal fluid (ACSF) ice-water mixed liquid into which mixed gas (95% O2 and 5% CO2) was introduced in advance, and stood for 2 min; the ACSF included the following components: […] of NaCl, […] of KCl, 0.12 mM of NaH2PO4, 0.25 mM of CaCl2), 0.12 mM of MgCl2, 25 mM of NaHCO3 and 11 mM of glucose. A hippocampus coronal brain slice of 350 μm was cut by a vibration slicer. The hippocampus coronal brain slice was placed into the ACSF at room temperature for more than 30 min for recovery, and then the brain slice was put into a record slot; continuous perfusing was performed at a speed of 2 to 2.5 ml/min by the ACSF into which the mixed gas was introduced; blind-binding sealing was performed on hippocampus CA1 pyramidal neuron under an Olympic BX51 upright microscope; whole-cell patch-clamp was performed by an Axon700B amplifier and a 1550B digital-to-analog converter; spontaneous excitatory postsynaptic current (sEPSC) of the pyramidal neuron was recorded by a voltage clamp under the clamp voltage of −70 mV; after recording for 5 min, synthetic polypeptides such as 5 μM QD202 or QD202 N′-1, C′-1 and C′-2 for 5 min; and then perfusing and flushing were performed for 10 min by the ACSF. The recorded data was analyzed by Minianalysis software. […]

[2] = target: T1, ATP6V1B2 protein of mouse brain hippocampus tissue (endogenous) (mouse, UniProt P62814 1-511); test: immunoprecipitation with biotin antibody from mouse hippocampus lysate, SDS-PAGE, mass spectrometry
T1 construct: Endogenous protein in tissue lysate; also called band of about 55 kDa
T1 sequence (P62814 whole entry): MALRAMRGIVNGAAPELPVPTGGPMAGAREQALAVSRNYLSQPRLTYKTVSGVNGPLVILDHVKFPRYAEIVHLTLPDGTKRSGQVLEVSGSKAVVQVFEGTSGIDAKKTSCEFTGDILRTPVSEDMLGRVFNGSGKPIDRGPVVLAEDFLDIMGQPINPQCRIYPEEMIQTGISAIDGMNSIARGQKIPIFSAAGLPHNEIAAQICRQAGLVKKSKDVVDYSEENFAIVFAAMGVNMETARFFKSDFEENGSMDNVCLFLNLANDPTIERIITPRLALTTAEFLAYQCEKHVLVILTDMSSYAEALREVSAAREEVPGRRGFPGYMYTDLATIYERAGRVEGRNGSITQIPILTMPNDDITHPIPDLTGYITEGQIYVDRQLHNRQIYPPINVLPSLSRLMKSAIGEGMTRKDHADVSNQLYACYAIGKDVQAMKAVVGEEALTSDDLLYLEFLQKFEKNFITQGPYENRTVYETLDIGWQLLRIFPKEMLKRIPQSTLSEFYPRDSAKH

With “QD202 C′-1: polypeptide of SEQ ID NO. 3; QD202 with one amino acid removed at the C end (YGRKKRRQRRRSPVDVVC; QD202 C -1)” the “spontaneous excitatory synaptic transmitter release of hippocampal CA1 neurons” value [1] was “effect similar to that of QD202 can still be observed”.

With “QD202 C′-2: polypeptide of SEQ ID NO. 4; QD202 with two amino acids removed at the C end (YGRKKRRQRRRSPVDVV; QD202 C -2)” the “spontaneous excitatory synaptic transmitter release of hippocampal CA1 neurons” value [1] was “effect similar to that of QD202 cannot be observed”.

In the case of “QD202 N′-1: polypeptide of SEQ ID NO. 2; QD202 with one amino acid removed at the N end (YGRKKRRQRRRPVDVVCS; QD202 N -1)”, the “spontaneous excitatory synaptic transmitter release of hippocampal CA1 neurons” value [1] is reported as “effect similar to that of QD202 cannot be observed”.

B1: Disordered control QD201 with a biotin label at the C' end (peptide)
peptide: YGRKKRRQRRRVCDSSVVP-biotin
B1: no binding [2].
